Data from the supplement of paper PMC11451515.

System: P12-Ichikawa
Test: cell viability relative to DMSO control; higher = less cytotoxic
Conditions: 48 h
Outline: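 Viability is a per-plate percentage relative to DMSO wells, with cell-free wells as background. CellTiter-Glo One luminescence was read after 48 h at 37°C on 1536-well plates (5 μl) of NOMO1 or SEM (500 cells/well) or P12-Ichikawa (1000 cells/well) leukemia cells. The cells had been adapted for at least four passages in each medium and pin-dosed with library compounds in DMSO from 47 μM to 0.79 nM in 11 threefold steps.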

[1] = HPLM + 10% dialyzed FBS, 0.000781 µM
[2] = HPLM + 10% dialyzed FBS, 0.00234 µM
[3] = HPLM + 10% dialyzed FBS, 0.00702 µM
[4] = HPLM + 10% dialyzed FBS, 0.0211 µM
[5] = HPLM + 10% dialyzed FBS, 0.0632 µM
[6] = HPLM + 10% dialyzed FBS, 0.19 µM
[7] = HPLM + 10% dialyzed FBS, 0.569 µM
[8] = HPLM + 10% dialyzed FBS, 1.71 µM
[9] = HPLM + 10% dialyzed FBS, 5.12 µM
[10] = HPLM + 10% dialyzed FBS, 15.4 µM
[11] = HPLM + 10% dialyzed FBS, 46.1 µM
[12] = RPMI 5 mM glucose + 10% FBS, 0.000781 µM
[13] = RPMI 5 mM glucose + 10% FBS, 0.00234 µM
[14] = RPMI 5 mM glucose + 10% FBS, 0.00702 µM
[15] = RPMI 5 mM glucose + 10% FBS, 0.0211 µM
[16] = RPMI 5 mM glucose + 10% FBS, 0.0632 µM
[17] = RPMI 5 mM glucose + 10% FBS, 0.19 µM
[18] = RPMI 5 mM glucose + 10% FBS, 0.569 µM
[19] = RPMI 5 mM glucose + 10% FBS, 1.71 µM
[20] = RPMI 5 mM glucose + 10% FBS, 5.12 µM
[21] = RPMI 5 mM glucose + 10% FBS, 15.4 µM
[22] = RPMI 5 mM glucose + 10% FBS, 46.1 µM
[23] = RPMI 5 mM glucose + 10% dialyzed FBS, 0.000781 µM
[24] = RPMI 5 mM glucose + 10% dialyzed FBS, 0.00234 µM
[25] = RPMI 5 mM glucose + 10% dialyzed FBS, 0.00702 µM
[26] = RPMI 5 mM glucose + 10% dialyzed FBS, 0.0211 µM
[27] = RPMI 5 mM glucose + 10% dialyzed FBS, 0.0632 µM
[28] = RPMI 5 mM glucose + 10% dialyzed FBS, 0.19 µM
[29] = RPMI 5 mM glucose + 10% dialyzed FBS, 0.569 µM
[30] = RPMI 5 mM glucose + 10% dialyzed FBS, 1.71 µM
[31] = RPMI 5 mM glucose + 10% dialyzed FBS, 5.12 µM
[32] = RPMI 5 mM glucose + 10% dialyzed FBS, 15.4 µM
[33] = RPMI 5 mM glucose + 10% dialyzed FBS, 46.1 µM

Compound | cell viability [1] | cell viability [2] | cell viability [3] | cell viability [4] | cell viability [5] | cell viability [6] | cell viability [7] | cell viability [8] | cell viability [9] | cell viability [10] | cell viability [11] | cell viability [12] | cell viability [13] | cell viability [14] | cell viability [15] | cell viability [16] | cell viability [17] | cell viability [18] | cell viability [19] | cell viability [20] | cell viability [21] | cell viability [22] | cell viability [23] | cell viability [24] | cell viability [25] | cell viability [26] | cell viability [27] | cell viability [28] | cell viability [29] | cell viability [30] | cell viability [31] | cell viability [32] | cell viability [33]
CO[C@H]1/C=C/O[C@@]2(C)Oc3c(C)c(O)c4c(O)c(c(/C=N/N5CCN(C)CC5)c(O)c4c3C2=O)NC(=O)/C(C)=C\C=C\[C@H](C)[C@H](O)[C@@H](C)[C@@H](O)[C@@H](C)[C@H](OC(C)=O)[C@@H]1C | 116% | 117% | 124% | 120% | 127% | 114% | 108% | 110% | 99.8% | 94.9% | 63.7% | 128% | 111% | 118% | 118% | 124% | 112% | 123% | 116% | 98.3% | 89.9% | 75.4% | 124% | 120% | 123% | 123% | 122% | 111% | 109% | 115% | 93.2% | 82% | 70.6%
COc1cccc2c(NCc3ccccc3)nc(-n3c(N)nc4ccccc43)nc12 | 99% | 103% | 108% | 107% | 108% | 112% | 109% | 111% | 94.3% | 58.3% | 8.25% | 94.8% | 108% | 95% | 115% | 111% | 103% | 111% | 110% | 114% | 63.7% | 6.11% | 106% | 100% | 111% | 99.6% | 112% | 114% | 119% | 111% | 102% | 76.6% | 10.1%
CCC[C@@H](C=O)NC(=O)[C@H](CC(C)C)NC(=O)[C@H](CC(C)C)NC(=O)OCc1ccccc1 | 107% | 108% | 120% | 120% | 117% | 118% | 132% | 118% | 12.1% | 6.77% | 5.18% | 105% | 116% | 113% | 118% | 122% | 121% | 121% | 104% | 7.61% | 6.3% | 4.83% | 104% | 115% | 120% | 124% | 124% | 130% | 133% | 133% | 14.7% | 7.12% | 5.01%
C/C(=C\c1csc(C)n1)[C@@H]1C[C@@H]2O[C@]2(C)CCC[C@H](C)[C@H](O)[C@@H](C)C(=O)C(C)(C)[C@@H](O)CC(=O)O1 | 33.8% | 32.1% | 28.8% | 58.9% | 28.1% | 22.6% | 23.1% | 25.3% | 30.8% | 17.1% | 21.4% | 18.2% | 19.1% | 23.7% | 44.1% | 24.6% | 22.6% | 24.3% | 22.7% | 25.6% | 24.2% | 27% | 44.5% | 34.4% | 31.2% | 58% | 37.6% | 35.4% | 32.6% | 32.8% | 43.7% | 35.5% | 38%
Cc1cc(SCc2sc(-c3ccc(C(F)(F)F)cc3)nc2C)ccc1OCC(=O)O | 97.8% | 102% | 102% | 104% | 102% | 99.8% | 106% | 100% | 103% | 94.9% | 90.6% | 98.3% | 104% | 96.6% | 101% | 106% | 91.2% | 101% | 94.6% | 94.8% | 81.1% | 83.2% | 96.8% | 101% | 102% | 96.6% | 94.8% | 97% | 101% | 92.5% | 97.6% | 87.2% | 83.5%
Cn1cc(-c2cnn3c(N)c(Br)c([C@@H]4CCCNC4)nc23)cn1 | 96.1% | 102% | 99.5% | 97.5% | 102% | 99.7% | 91.3% | 86.4% | 16.8% | 5.55% | 6.43% | 91.6% | 98.8% | 94% | 100% | 93.4% | 96.5% | 93.8% | 77.3% | 13.1% | 3.15% | 3.91% | 86.9% | 103% | 95.9% | 95.1% | 89.8% | 99% | 90.2% | 77.3% | 12.2% | 4.05% | 5.37%
CC(=O)Oc1cc2c(s1)CCN(C(C(=O)C1CC1)c1ccccc1F)C2.Cl (centres undefined) | 95% | 102% | 100% | 107% | 107% | 103% | 107% | 112% | 101% | 106% | 65.1% | 100% | 106% | 101% | 111% | 115% | 124% | 116% | 133% | 101% | 94.8% | 53.5% | 95.9% | 105% | 102% | 104% | 103% | 112% | 104% | 101% | 99.7% | 80.3% | 50.3%
CC1(C)Cc2c(sc(NC(=S)NC(=O)c3ccccc3)c2C(=O)O)CO1 | 99.1% | 109% | 107% | 110% | 109% | 115% | 118% | 114% | 101% | 99.2% | 101% | 103% | 110% | 110% | 116% | 119% | 118% | 121% | 112% | 110% | 108% | 106% | 103% | 112% | 108% | 110% | 115% | 109% | 126% | 122% | 114% | 105% | 106%
OC1=CC2=C(C(=O)\C=C(/O2)C3=CC=CC=C3)C(=C1O)O | 114% | 110% | 120% | 113% | 113% | 106% | 111% | 109% | 64.9% | 9.59% | 10.4% | 117% | 112% | 104% | 118% | 120% | 111% | 117% | 116% | 114% | 13.3% | 12% | 113% | 117% | 120% | 112% | 111% | 110% | 112% | 118% | 108% | 23.7% | 23.2%
COc1ccccc1OCCNCC(O)COc1cccc2[nH]c3ccccc3c12 (centres undefined) | 121% | 124% | 124% | 118% | 119% | 117% | 122% | 119% | 109% | 113% | 100% |  |  |  |  |  |  |  |  |  |  |  | 119% | 115% | 119% | 119% | 122% | 122% | 115% | 124% | 112% | 112% | 99.6%
Cn1c(=O)c2[nH]cnc2n(C)c1=O | 104% | 113% | 116% | 114% | 111% | 110% | 116% | 109% | 114% | 106% | 104% | 112% | 113% | 115% | 117% | 109% | 115% | 124% | 106% | 112% | 108% | 105% | 115% | 111% | 113% | 107% | 111% | 116% | 107% | 108% | 111% | 99.7% | 94.2%
COC(=O)Nc1ccc(-c2nc(N3CCOCC3)c3cnn(C4CCN(Cc5cccnc5)CC4)c3n2)cc1 | 113% | 117% | 112% | 113% | 109% | 96.2% | 83.5% | 83.6% | 51.1% | 31.9% | 12.9% | 106% | 111% | 102% | 103% | 98.3% | 69.9% | 61% | 61.4% | 43.1% | 32.4% | 24.7% | 113% | 118% | 114% | 116% | 100% | 72.3% | 65.2% | 59.8% | 53.1% | 43.5% | 6.49%
O=C(O)CCNc1cc(N2CCc3ccccc3CC2)nc(-c2ccccn2)n1 | 119% | 116% | 115% | 127% | 114% | 111% | 117% | 112% | 114% | 102% | 88.5% | 122% | 119% | 113% | 110% | 114% | 123% | 123% | 128% | 104% | 97.8% | 69.2% | 116% | 130% | 123% | 126% | 123% | 109% | 115% | 121% | 114% | 102% | 79.6%
CN(C)CC[C@H](CSc1ccccc1)Nc1ccc([S+](=O)([O-])NC(=O)c2ccc(N3CCN(Cc4ccccc4-c4ccc(Cl)cc4)CC3)cc2)cc1[N+](=O)[O-] | 118% | 123% | 120% | 110% | 115% | 97.8% | 85.4% | 56.7% | 14.9% | 7.53% | 4.59% | 127% | 116% | 116% | 115% | 120% | 115% | 108% | 79.9% | 24.2% | 12.5% | 4.92% | 124% | 128% | 124% | 124% | 119% | 117% | 95.5% | 76.1% | 15.8% | 8.77% | 4.13%
COc1nccc(-c2c(-c3ccc(F)cc3)ncn2C2CCC(O)CC2)n1 (centres undefined) | 121% | 117% | 112% | 108% | 118% | 115% | 103% | 105% | 101% | 98.3% | 75.1% | 113% | 120% | 122% | 116% | 111% | 110% | 117% | 112% | 110% | 106% | 86.3% | 126% | 121% | 114% | 117% | 120% | 123% | 118% | 115% | 115% | 115% | 41.2%
